The values that follow come from PMC7442270, “Phase 3 Trial of a Small-volume Subcutaneous 6-Month Duration Leuprolide Acetate Treatment for Central Precocious Puberty” (The Journal of Clinical Endocrinology and Metabolism, 2020).

The nature of the series: clinical. Particulars: human, in vivo, sc, 45 mg. The arrangement: species or system children with CPP. Here is the method: All samples were processed by a central laboratory (Syneos Health [formerly […] Health Clinique Inc.], Canada). A validated bioanalytical LC-MS/MS method with an LLOD of 0.025 ng/mL was used to measure serum leuprolide concentrations.

Consider `CCNC(=O)[C@@H]1CCCN1C(=O)[C@H](CCCNC(=N)N)NC(=O)[C@H](CC(C)C)NC(=O)[C@@H](CC(C)C)NC(=O)[C@H](Cc1ccc(O)cc1)NC(=O)[C@H](CO)NC(=O)[C@H](Cc1c[nH]c2ccccc12)NC(=O)[C@H](Cc1c[nH]cn1)NC(=O)[C@@H]1CCC(=O)N1` [leuprolide], for which the concentration peaked (Cmax) at 212 ng/mL and the level at 672 h was 0.63 ng/mL. The AUC (burst phase) was 938 ng·h/mL. In addition, the AUC (plateau phase) was 42300 ng·h/mL. In addition, the Tmax (T max, burst phase (time at which the Cmax is observed)) is 3.7 h. Also, the Tmax (Time after injection at which leuprolide levels peaked) was determined as 4 h.

Usually Cmax stands for the peak of the concentration-time curve. One may read the AUC as the area under the concentration-time curve, a measure of exposure. Higher therefore signals more exposure. The Tmax is the time from dosing to the highest level.
